From patent US8329656B2, “Use of a PDE5 inhibitor for treating and preventing hypopigmentary disorders” (Switch Biotech AG, priority 2004, dated 2012)
Entries after “also recorded” stand apart in the source; their conditions may differ.

System: human melanoma cell line (Mel-Ho)
Assay: Melanocyte dendrite outgrowth assay
Type: cell-based
Conditions: Mel-Ho cells; for induction of melanocyte dendricity (in words): different concentrations, 24 hours
Source text: A possibility to test the effect of a compound on melanocyte function as a measure for pigmentation, the melanocyte dendrite outgrowth assay can be performed. Vitiligo melanocytes for example have only stubby dendrites. Increasing dendricity as a prerequisite for the transfer of the melanosomes from melanocytes to the surrounding keratinocytes rescues this defect. For this assay, cells from a human melanoma cell line (Mel-Ho) were obtained from DSMZ (Deutsche Sammlung für Mikroorganismen and Zellkulturen) and were cultured according to the protocol provided by DSMZ. In short, after thawing the melanocytes were cultured in T-75 flasks in melanocyte culture media (provided by the manufacturer) until they reach 70-80% confluency. The melanocytes were then trypsinized, transferred into 5-10 new T-75 flasks, and grown again to same confluency as described above. After this expansion step the melanocytes were immediately used for the Melanocyte Dendrite Outgrowth Assay or were frozen for later use. For the assay, the melanocytes were seeded in 24 well plates at a density of 1-5×10^4 cells/well. After 24 hours, the melanocytes were treated with 100 μM IBMX (Sigma-Aldrich) or different concentrations of Sildenafil and Tadalafil for 24 hours. IBMX (=3-isobutyl-1-methylxanthin) is known to cause increased melanocyte dendricity and was used as a positive control. Cells treated with media only were used as a negative control. Melanocyte dendrite outgrowth was documented by digital photography (Canon G2 Powershot) after 3, 6 and 24 hours. In addition, melanocyte dendricity was scored by 3 blinded individuals after 24 hours. The score ranges from 1 to 4; 1 representing melanocytes with no dendrites and 4 representing melanocytes with many long and branched dendrites. […] 10 μM Sildenafil was used to obtain an score of >3, however also lower concentrations (down to 10 nM) of Sildenafil was sufficient to induce dendrite formation. The experiment was performed as described in Example 1, however using Tadalafil as active component.

Row | SMILES | induction of melanocyte dendricity (in words) | concentration sufficient to induce dendrite formation (lower concentrations than 10 μM) [nM]
1 | CN1CC(=O)N2C(Cc3c([nH]c4ccccc34)[C@H]2c2ccc3c(c2)OCO3)C1=O (stereo partly drawn) [Tadalafil, (6R,12aR)-2,3,6,7,12,12a-hexahydro-2-methyl-6-(3,4-methylenedioxyphenyl)pyrazino[1′,2′:1,6]pyrido[3,4-b]indole-1,4-dione] | very similar to the results obtained with Sildenafil; also recorded: effectively induces dendricity; also recorded: strongly increased dendricity | –
2 | CCCc1nn(C)c2c(=O)[nH]c(-c3cc(S(=O)(=O)N4CCN(C)CC4)ccc3OCC)nc12 [Sildenafil, 5-[2-Ethoxy-5-(4-methyl-1-piperazinylsulfonyl)phenyl]-1-methyl-3-n-propyl-1,6-dihydro-7H-pyrazolo[4,3-d]pyrimidin-7-one] | strongly increased dendricity | ≥ 10
